According to US9957265B2, “N-(2-cyano heterocyclyl) pyrazolo pyridones as janus kinase inhibitors” (Merck Sharp & Dohme Corp., priority 2013, dated 2018):
Read-outs that look alike come from different tables or passages of the source.

Columns and labels:
JAK1 = JAK1 (Homo sapiens (Human), UniProt P23458); experiment: Jak Biochemical HTRF Assay (JAK1); conditions: recombinant GST-tagged catalytic domain, [ATP] 31.8 μM, unit not given (compound concentrations tested given in nM)
Description: Jak Biochemical HTRF Assay Protocol
Subsequent reagent additions employed an Agilent Bravo.

JAK2 = JAK2 (Homo sapiens (Human), UniProt O60674); experiment: Jak Biochemical HTRF Assay (JAK2)
Sequence of JAK2 (O60674 849-1124): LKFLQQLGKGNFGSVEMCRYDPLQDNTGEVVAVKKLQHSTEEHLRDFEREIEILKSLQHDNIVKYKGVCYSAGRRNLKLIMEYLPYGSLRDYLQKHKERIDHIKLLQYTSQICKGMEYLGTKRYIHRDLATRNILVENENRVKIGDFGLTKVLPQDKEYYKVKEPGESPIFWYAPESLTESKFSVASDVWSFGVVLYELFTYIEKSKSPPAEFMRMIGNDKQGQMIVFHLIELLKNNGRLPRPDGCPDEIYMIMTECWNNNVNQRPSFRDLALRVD
Description: The ability of compounds to inhibit the activity of JAK1, JAK2, JAK3, and TYK2 was measured using a recombinant purified GST-tagged catalytic domain for each enzyme (Invitrogen JAK1 #M4290, JAK2 #M4290, JAK3 #M4290, TYK2 #M4290) in an HTRF format biochemical assay. […] Subsequent reagent additions employed an Agilent Bravo. […] After equilibration, 2 μL of 10×ATP in 1× assay buffer was added to initiate the kinase reaction and the plates were shaken and then incubated at room temperature for 120 minutes. […] After normalization to untreated controls, the percent inhibition of the HTRF signal at each compound concentration was calculated. The plot of percent inhibition versus the log of compound concentration was fit with a 4-parameter dose response equation to calculate IC50 values.
Final reaction conditions were:

[1] = read-out: JAK2 IC50, recombinant GST-tagged catalytic domain, [ATP] 8.5 μM, unit not given (compound concentrations tested given in nM)
[2] = JAK2 IC50, recombinant GST-tagged catalytic domain, [ATP] 8.5 μM, unit not given (compound concentrations tested given in nM)

Sequence of JAK1 (P23458 875-1153): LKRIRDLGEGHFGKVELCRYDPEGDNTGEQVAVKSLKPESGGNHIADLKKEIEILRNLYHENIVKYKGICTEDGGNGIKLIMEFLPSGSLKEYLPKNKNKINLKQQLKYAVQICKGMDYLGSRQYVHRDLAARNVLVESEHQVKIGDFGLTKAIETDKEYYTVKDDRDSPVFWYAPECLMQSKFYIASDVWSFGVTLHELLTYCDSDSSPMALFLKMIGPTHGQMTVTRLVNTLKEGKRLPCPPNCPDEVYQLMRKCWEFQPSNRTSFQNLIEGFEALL

Row | Structure (SMILES) | IC50 (JAK1) | IC50 (JAK2; [1]) | IC50 (JAK2; [2])
1 | CN(C)S(=O)(=O)c1ccc(Nc2nn([C@H]3COCC[C@@H]3C#N)c3cc[nH]c(=O)c23)cc1 [Example 1-6, 4-((1-((3R,4S)-4-cyanotetrahydro-2H-pyran-3-yl)-4-oxo-4,5-dihydro-1H-pyrazolo[4,3-c]pyridin-3-yl)amino)-N,N-dimethyl-benzenesulfonamide] | 0.07 nM | 0.21 nM | 
2 | CC(C)(C)S(=O)(=O)c1ccc(Nc2nn([C@@H]3COCCC[C@@H]3C#N)c3cc[nH]c(=O)c23)cc1 (single isomer, unassigned) [Example 1-25, (3S,4S or 3R,4R)-3-(3-{[4-(tert-butylsulfonyl)phenyl]amino}-4-oxo-4,5-dihydro-1H-pyrazolo[4,3-c]pyridin-1-yl)oxepane-4-carbonitrile] | 2.27 nM |  | 3.43 nM
3 | N#C[C@H]1CCOC[C@@H]1n1nc(Nc2ccc(C(N3CCCC3)C(F)(F)F)cc2)c2c(=O)[nH]ccc21 (single isomer, unassigned) [Example 1-42, (3R,4S)-3-[4-oxo-3-({4-[(1R or 1S)-2,2,2-trifluoro-1-pyrrolidin-1-ylethyl]phenyl}amino)-4,5-dihydro-1H-pyrazolo[4,3-c]pyridin-1-yl]tetrahydro-2H-pyran-4-carbonitrile] | 0.05 nM |  | 0.13 nM
4 | CN1CCN(C(c2ccc(Nc3nn([C@H]4COCC[C@@H]4C#N)c4cc[nH]c(=O)c34)cc2)C(F)(F)F)CC1 (single isomer, unassigned) [Example 1-37, (3R,4S)-3-[4-oxo-3-({4-[(1S or 1R)-2,2,2-trifluoro-1-(4-methylpiperazin-1-yl)ethyl]phenyl}amino)-4,5-dihydro-1H-pyrazolo[4,3-c]pyridin-1-yl]tetrahydro-2H-pyran-4-carbonitrile] | 0.22 nM |  | 0.33 nM
5 | N#Cc1ccc(Nc2nn([C@H]3COCC[C@@H]3C#N)c3cc[nH]c(=O)c23)cc1 [Example 1-31, (3R,4S)-3-{3-[(4-cyanophenyl)amino]-4-oxo-4,5-dihydro-1H-pyrazolo[4,3-c]pyridin-1-yl}tetrahydro-2H-pyran-4-carbonitrile] | 0.12 nM | 0.96 nM | 
6 | CC1c2cc(Nc3nn([C@H]4COCC[C@@H]4C#N)c4cc[nH]c(=O)c34)ccc2S(=O)(=O)N1C (single isomer, unassigned) [Example 1-34, (3R,4S)-3-(3-(((R or S)-2,3-dimethyl-1,1-dioxido-2,3-dihydrobenzo[d]isothiazol-5-yl)amino)-4-oxo-4,5-dihydro-1H-pyrazolo[4,3-c]pyridin-1-yl)tetrahydro-2H-pyran-4-carbonitrile] | 0.03 nM |  | 1.18 nM
7 | CC(C)(C)N1Cc2cc(Nc3nn([C@H]4COCC[C@@H]4C#N)c4cc[nH]c(=O)c34)ccc2S1(=O)=O [Example 1-5, (3R,4S)-3-(3-((2-(tert-butyl)-1,1-dioxido-2,3-dihydrobenzo[d]isothiazol-5-yl)amino)-4-oxo-4,5-dihydro-1H-pyrazolo[4,3-c]pyridin-1-yl)tetrahydro-2H-pyran-4-carbonitrile] | 0.05 nM | 0.15 nM | 
8 | CN(C)C(c1ccc(Nc2nn([C@H]3COCC[C@@H]3C#N)c3cc[nH]c(=O)c23)cc1)C(F)(F)F (single isomer, unassigned) [Example 1-19, (3R,4S)-3-[3-({4-[(1S or 1R)-1-(dimethylamino)-2,2,2-trifluoroethyl]phenyl}amino)-4-oxo-4,5-dihydro-1H-pyrazolo[4,3-c]pyridin-1-yl]tetrahydro-2H-pyran-4-carbonitrile] | 0.05 nM |  | 0.08 nM
9 | N#C[C@H]1CCOC[C@@H]1n1nc(Nc2ccc(C(N3CCNCC3)C(F)(F)F)cc2)c2c(=O)[nH]ccc21 (single isomer, unassigned) [Example 1-38, (3R,4S)-3-[4-oxo-3-({4-[(1R or 1S)-2,2,2-trifluoro-1-piperazin-1-ylethyl]phenyl}amino)-4,5-dihydro-1H-pyrazolo[4,3-c]pyridin-1-yl]tetrahydro-2H-pyran-4-carbonitrile] | 0.09 nM |  | 0.13 nM
10 | CC(c1ccc(Nc2nn([C@H]3COCC[C@@H]3C#N)c3cc[nH]c(=O)c23)cc1)n1nccn1 (single isomer, unassigned) [Example 1-45, (3R,4S)-3-[4-oxo-3-({4-[(1R or 1S)-1-(2H-1,2,3-triazol-2-yl)ethyl]phenyl}amino)-4,5-dihydro-1H-pyrazolo[4,3-c]pyridin-1-yl]tetrahydro-2H-pyran-4-carbonitrile] | 0.14 nM |  | 0.21 nM

Further lines, results first:

Row | IC50 (JAK1) | IC50 (JAK2; [1]) | IC50 (JAK2; [2]) | Structure (SMILES)
11 | 0.22 nM | 0.7 nM |  | CC1(C)CN(S(=O)(=O)c2ccc(Nc3nn([C@H]4COCC[C@@H]4C#N)c4cc[nH]c(=O)c34)cc2)CCO1 [Example 1-71, (3R,4S)-3-[3-({4-[(2,2-dimethylmorpholin-4-yl)sulfonyl]phenyl}amino)-4-oxo-4,5-dihydro-1H-pyrazolo[4,3-c]pyridin-1-yl]tetrahydro-2H-pyran-4-carbonitrile]
12 | 1.75 nM |  | 14.6 nM | C[S+]([O-])c1cc(Nc2nn([C@H]3COCC[C@@H]3C#N)c3cc[nH]c(=O)c23)ccc1Cl (mixture of isomers) [Example 3-4, (3R,4S)-3-(3-{[4-chloro-3-((S and R)methylsulfinyl)phenyl]amino}-4-oxo-4,5-dihydro-1H-pyrazolo[4,3-c]pyridin-1-yl)tetrahydro-2H-pyran-4-carbonitrile]
13 | 0.13 nM |  | 0.15 nM | N#C[C@H]1CCOC[C@@H]1n1nc(Nc2ccc(C(NC3CCCC3)C(F)(F)F)cc2)c2c(=O)[nH]ccc21 (single isomer, unassigned) [Example 1-84, (3R,4S)-3-[3-({4-[(1S or 1R)-1-(cyclopentylamino)-2,2,2-trifluoroethyl]phenyl}amino)-4-oxo-4,5-dihydro-1H-pyrazolo[4,3-c]pyridin-1-yl]tetrahydro-2H-pyran-4-carbonitrile]
14 | 0.08 nM |  | 0.09 nM | CC(C)NC(c1ccc(Nc2nn([C@H]3COCC[C@@H]3C#N)c3cc[nH]c(=O)c23)cc1)C(F)(F)F (single isomer, unassigned) [Example 1-53, (3R,4S)-3-{4-oxo-3-[(4-{[1S or 1R)-2,2,2-trifluoro-[(1-methylethyl)amino]ethyl}phenyl)amino]-4,5-dihydro-1H-pyrazolo[4,3-c]pyridin-1-yl}tetrahydro-2H-pyran-4-carbonitrile]
15 | 0.06 nM |  | 0.05 nM | CC(C)NC1(C)C(=O)Nc2cc(Nc3nn(C4COCC[C@@H]4C#N)c4cc[nH]c(=O)c34)ccc21 (single isomer, unassigned) [Example 1-100, (3R,4S)-3-[3-({(3R or 3S)-3-methyl-3-[(1-methylethyl)amino]-2-oxo-2,3-dihydro-1H-indol-6-yl}amino)-4-oxo-4,5-dihydro-1H-pyrazolo[4,3-c]pyridin-1-yl] tetrahydro-2H-pyran-4-carbonitrile]
16 | 0.87 nM |  | 2.56 nM | CC(C)(C)CNC(c1ccc(Nc2nn([C@H]3COCC[C@@H]3C#N)c3cc[nH]c(=O)c23)cc1)C(F)(F)F (single isomer, unassigned) [Example 1-82, (3R,4S)-3-{3-[(4-{[1S or 1R)-1-[(2,2-dimethylpropyl)amino]-2,2,2-trifluoroethyl}phenyl)amino]-4-oxo-4,5-dihydro-1H-pyrazolo[4,3-c]pyridin-1-yl} tetrahydro-2H-pyran-4-carbonitrile]
17 | 0.05 nM | 0.29 nM |  | N#C[C@H]1CCOC[C@@H]1n1nc(Nc2ccc3c(c2)CN(CC(F)(F)F)S3(=O)=O)c2c(=O)[nH]ccc21 [Example 1-62, (3R,4S)-3-(3-{[1,1-dioxido-2-(2,2,2-trifluoroethyl)-2,3-dihydro-1,2-benzothiazol-5-yl]amino}-4-oxo-4,5-dihydro-1H-pyrazolo[4,3-c]pyridin-1-yl)tetrahydro-2H-pyran-4-carbonitrile]
18 | 0.17 nM |  | 0.21 nM | CC(C)CNC(c1ccc(Nc2nn([C@H]3COCC[C@@H]3C#N)c3cc[nH]c(=O)c23)cc1)C(F)(F)F (single isomer, unassigned) [Example 1-91, (3R,4S)-3-{4-oxo-3-[(4-{(1R or 1S)-2,2,2-trifluoro-1-[(2-methylpropyl)amino]ethyl}phenyl)amino]-4,5-dihydro-1H-pyrazolo[4,3-c]pyridin-1-yl}tetrahydro-2H-pyran-4-carbonitrile]
19 | 0.09 nM |  | 0.11 nM | N#C[C@H]1CCOC[C@@H]1n1nc(Nc2ccc(C(NC3CCC3)C(F)(F)F)cc2)c2c(=O)[nH]ccc21 (single isomer, unassigned) [Example 1-93, (3R,4S)-3-[3-({4-[(1R or 1S)-1-(cyclobutylamino)-2,2,2-trifluoroethyl]phenyl}amino)-4-oxo-4,5-dihydro-1H-pyrazolo[4,3-c]pyridin-1-yl]tetrahydro-2H-pyran-4-carbonitrile]
20 | 0.21 nM |  | 0.4 nM | CC(C)CNC(c1ccc(Nc2nn([C@H]3COCC[C@@H]3C#N)c3cc[nH]c(=O)c23)cc1)C(F)(F)F (single isomer, unassigned) [Example 1-90, (3R,4S)-3-{4-oxo-3-[(4-{(1S or 1R)-2,2,2-trifluoro-1-[(2-methylpropyl)amino]ethyl}phenyl)amino]-4,5-dihydro-1H-pyrazolo[4,3-c]pyridin-1-yl}tetrahydro-2H-pyran-4-carbonitrile]
21 | 0.05 nM |  | 0.27 nM | CC(O)(c1ccc(Nc2nn([C@H]3COCC[C@@H]3C#N)c3cc[nH]c(=O)c23)cc1)C(F)(F)F (single isomer, unassigned) [Example 2-4, (3R,4S)-3-[4-oxo-3-({4-[(1R or 1S)-2,2,2-trifluoro-1-hydroxy-1-methylethyl]phenyl}amino)-4,5-dihydro-1H-pyrazolo[4,3-c]pyridin-1-yl]tetrahydro-2H-pyran-4-carbonitrile]
